Data on one substance can be found in PMC10949195, “Exponential Combination of a and e/g Intracellular Peptide Libraries Identifies a Selective ATF3 Inhibitor” (ACS Chemical Biology, 2024).

The series can be described thus: CD spectra of peptide in isolation (helicity, 222/208 ratio). The series is classed as physicochemical. Conditions: 20 °C, 150 μM total peptide, pH 7.0. On the procedure: ATF3, ATF3W_a, and ATF3W_eg and combined hit sequence ATF3W_aeg were synthesized using solid phase peptide synthesis, purified by RP-HPLC, and verified for correct mass using ESI-MS (Figure S3), after which circular dichroism (CD) was used to characterize both ATF3 and antagonist peptides for helicity and interactions as homodimers, as well as heterodimers with the ATF3 target. Global secondary analysis of both homodimeric and heterodimeric systems was carried out at a total peptide concentration of 150 μM to keep equimolar concentrations of each component helix. The 222/208 ratio was used to provide evidence on whether the helices were likely to be monomeric or adopt quaternary structure.[13] […] Furthermore, incubation of ATF3 with ATF3W_aeg elicited a significant conformational change in the sample relative to the average of the component peptides (Figure 6d black line vs red hash), providing compelling evidence for an interaction.[14] In addition, the component PCA hits were examined using CD.
Figure 6 CD spectra data indicates a ATF3-ATF3W_aeg interaction. […] Spectra were next measured at 20 and 5 °C and again post-thermal denaturation (PM 20 °C to establish reversible that unfolding is fully reversible) at a total peptide concentration of 150 μM and presented as mean residue ellipticity (MRE). […]

As for “Ac-ELAALEQKAYALKQENAALEKEVAALEQKIAALK-NH2 (N-terminus and C-terminus assumed) [ATF3W_aeg]”, the “222/208 ratio, peptide in isolation” value is 0.76. The “fractional helicity (fH), peptide in isolation” value (10 mM potassium phosphate, 100 mM potassium fluoride) is ~38%.
